In BindingDB's records for patent US20250230147 (Genentech, 2025):

What was measured:
[1] = target: E3 ubiquitin-protein ligase CBL (Homo sapiens, UniProt P22681); assay: Cbl-b and c-Cbl SPR Assay
[2] = target: E3 ubiquitin-protein ligase CBL-B (Homo sapiens, UniProt Q13191); assay: Cbl-b and c-Cbl SPR Assay
Chain of E3 ubiquitin-protein ligase CBL-B (Q13191 whole entry): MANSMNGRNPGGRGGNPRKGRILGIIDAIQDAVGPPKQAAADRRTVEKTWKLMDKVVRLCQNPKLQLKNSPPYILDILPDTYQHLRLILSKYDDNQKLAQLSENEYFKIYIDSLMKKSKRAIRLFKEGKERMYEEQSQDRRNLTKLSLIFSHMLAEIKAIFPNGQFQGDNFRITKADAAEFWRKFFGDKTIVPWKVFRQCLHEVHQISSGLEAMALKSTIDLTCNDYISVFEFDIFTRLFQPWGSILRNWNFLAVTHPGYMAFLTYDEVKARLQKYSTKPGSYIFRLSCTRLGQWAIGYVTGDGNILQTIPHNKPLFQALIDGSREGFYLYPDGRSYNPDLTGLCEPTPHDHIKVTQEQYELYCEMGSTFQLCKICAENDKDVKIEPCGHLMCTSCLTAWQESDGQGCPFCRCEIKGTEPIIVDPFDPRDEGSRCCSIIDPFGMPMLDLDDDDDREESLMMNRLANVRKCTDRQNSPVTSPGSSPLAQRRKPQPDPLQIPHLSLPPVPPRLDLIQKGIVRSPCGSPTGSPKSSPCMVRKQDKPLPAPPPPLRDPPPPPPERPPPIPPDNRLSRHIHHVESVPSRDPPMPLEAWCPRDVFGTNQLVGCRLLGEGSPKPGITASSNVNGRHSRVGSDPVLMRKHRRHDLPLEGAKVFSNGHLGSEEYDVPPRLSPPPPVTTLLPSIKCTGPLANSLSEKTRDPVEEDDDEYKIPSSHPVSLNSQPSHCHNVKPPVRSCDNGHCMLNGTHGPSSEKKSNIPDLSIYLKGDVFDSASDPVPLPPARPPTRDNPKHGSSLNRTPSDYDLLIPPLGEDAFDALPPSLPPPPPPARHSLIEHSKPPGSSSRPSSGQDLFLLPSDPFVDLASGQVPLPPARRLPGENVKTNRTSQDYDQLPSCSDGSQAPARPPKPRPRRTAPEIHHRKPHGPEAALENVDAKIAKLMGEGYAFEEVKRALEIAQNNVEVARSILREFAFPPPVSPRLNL

IC50 [1] [nM] | IC50 [2] [nM] | SMILES
170 | 77 | Cn1cnnc1[C@H](F)[C@](C)(F)c1cccc(N2Cc3c(cc(CN4CCC5(CC5)C4)cc3C(F)(F)F)C2=O)c1 [US20250230147, Compound 127]
1600 | 480 | Cn1cnnc1[C@H](F)[C@@](C)(F)c1cccc(N2Cc3c(cc(CN4CCC5(CC5)C4)cc3C(F)(F)F)C2=O)c1 [US20250230147, Compound 128]
460 | 130 | Cn1cnnc1[C@@H](F)[C@](C)(F)c1cccc(N2Cc3c(cc(CN4CCC5(CC5)C4)cc3C(F)(F)F)C2=O)c1 [US20250230147, Compound 129]
13000 | 4000 | Cn1cnnc1[C@@H](F)[C@@](C)(F)c1cccc(N2Cc3c(cc(CN4CCC5(CC5)C4)cc3C(F)(F)F)C2=O)c1 [US20250230147, Compound 130]
8.5 | 12 | Cn1cnnc1[C@H](F)C1(c2cccc(N3Cc4c(Cl)cc(CNC5(C)CCC5)cc4C3=O)c2)COC1 [US20250230147, Compound 470]
